Experimental findings from patent US11903956B2, “Compositions and products for infectious or inflammatory diseases or conditions” (B&H BIOTECHNOLOGIES, LLC, priority 2013, dated 2024) are described below.

The subject of assay [1] is dogs suffered from acute diarrhea. Briefly: Treatment of diarrhea of dogs with formula-2.2. It is filed as in vivo. The protocol:
Two groups of dogs suffered from acute diarrhea with the symptoms of vomiting, depression, dehydration, listlessness, an increased frequency of diarrhea were treated once per day via oral administration or intramuscular injection with: 1) Cephradine according to manufacture's instruction (antibiotic group, n=15); and 2) 1.5 ml/kg of body weight of the formula-2.2 (n=10). Eight out ten (8/10, 80%) of the dogs stopped diarrhea after one dose of the treatment with formula-2.2.

Assay [2] has as its system sucking or weaning piglets with various diarrheas or infective gastroenteritis. Briefly: Treatment of piglet diarrhea at ages 5-40 days with formula-2.2. In kind it is in vivo. The protocol: The formula-2.2 as prepared above in 6.1 was used for the treatment of diarrhea piglets at ages 5-40 days.
Two groups of sucking or weaning piglets with various diarrheas or infective gastroenteritis at ages of 5-40 days were treated once per day via oral administration with: 1) Enrofloxacin according to manufacture's instruction (antibiotic group, n=139); and 2) 1 ml/kg of body weight of the formula-2.2 (n=262).

For assay [3], the system named is sucking piglets with yellow watery diarrhea or infective gastroenteritis. Nature of the assay: Treatment of piglet diarrhea at ages 1-5 days with formulations. It is filed as in vivo. From the text: Diarrhea is a common disorder with sucking or weaning piglets. Viral or bacterial infections are common causes of piglet diarrhea. Piglets with viral diarrhea usually have yellow watery stools and piglets with bacterial diarrhea usually have gray stools. Sometimes, yellow diarrhea is accompanied with vomiting showing the characteristic of infective gastroenteritis. Often, piglet diarrhea or infective gastroenteritis is caused by mixed infection of viruses and bacteria. Piglets younger than one week could have a serious viral diarrhea or infective gastroenteritis with high death rates from about 70% to over 90%.
The formulations of 1.2, 2.2, 3.2 and 4.2 as prepared above in 6.1 were used for the treatment of diarrhea piglets at ages 1-5 days. […] In addition, combination of formula 1.2 and Enrofloxacin was also used for the treatment of piglet diarrhea.
Seven groups of sucking piglets with yellow watery diarrhea or infective gastroenteritis at ages of 1-5 days were treated once per day via oral administration or muscular injection with: 1) 1 ml/kg of body weight of ORS alone (control group, n=50); 2) Enrofloxacin according to manufacture's instruction (antibiotic control, n=69); 3) 1 ml/kg of body weight of the formula-1.2 (n=49); 4) 1 ml/kg of body weight of the formula-2.2 (n=82); 5) 1 ml/kg of body weight of the formula-3.2 (n=55); 6) 1 ml/kg of body weight of the […]; and 7) 1 ml/kg of body weight of the formula-1.2 plus Enrofloxacin (n=32).

The test system of assay [4] is rhesus rotavirus (RRV). Briefly: Treatment of rotavirus infection of mouse pups with formulations. To be noted: RRV-infected mouse pups.
The test system of assay [5] is influenza virus of A/PR/8/34(H1N1). It is filed as in vivo, mouse.
For assay [6], the system named is respiratory infections accompanied with the respiratory syndrome (asthma). Nature of the assay: Treatment of respiratory infections or disorders of piglets. In kind it is in vivo. From the text:
The formulations of 1.2 and 3.2 as prepared above in 6.1 were used for the prevention and treatment of respiratory infections or disorders of piglets. The ORS alone and a commercially available antibiotic product, Timicosin were used as controls. In addition, combination of formula 3.2 and Timicosin was used for the treatment of respiratory infections or disorders of piglets.
Weaning piglets (10˜15 kg, aged 5-7 weeks) suffered from respiratory infections accompanied with the respiratory syndrome characterized by asthma-like symptoms (difficulty with breath). The sick piglets were treated separately once a day via oral administration or intramuscular injection with 1) Tilmicosin according to manufacture's instructions (n=39); 2) 1 ml/kg of body weight of the formula-3.2 (n=36); and 3) Tilmicosin and 1 ml/kg of body weight of the formula-3.2 (n=41).

In assay [7] the test system is dogs suffered from respiratory infections. Briefly: Treatment of respiratory infections of dogs. It is filed as in vivo. The protocol:
The formula-3.2 as prepared above in 6.1 was used via oral administration for the prevention or treatment of respiratory infections or disorders of dogs.
Two groups of dogs suffered from respiratory infections with the symptoms of runny nose, coughing, chills, fever and weakness/fatigue (etc.) were treated once per day via oral administration or intramuscular injection with: 1) Tulathromycin according to manufacture's instruction (antibiotic group, n=6); 2) 1.5 ml/kg of body weight of the formula-3.2 (n =6); and 3) Tulathromycin and 1.5 ml/kg of body weight of the formula-3.2 (n=9).

With `CC1=C(C(=O)O)N2C(=O)[C@@H](NC(=O)[C@H](N)C3=CCC=CC3)[C@H]2SC1` [Cephradine], in assay [1] (dogs with acute diarrhea), the “Later Rec (recovered after 24 hours), number of dogs” value is listed as 14. Also, the “Early Rec (recovered within 24 hours), number of dogs” value in assay [1] (dogs with acute diarrhea, once per day) was 1. The OR in assay [1] (early recovery) is listed as 0.02. Besides, the “Rate (%) of early recovery” value in assay [1] (recovered within 24 hours) turned out to be 6.67%.
In the case of `CCN1CCN(c2cc3c(cc2F)c(=O)c(C(=O)O)cn3C2CC2)CC1` [Enrofloxacin], the “day at which majority of piglets stopped diarrhea” value in assay [2] (after 4-5 dose treatment (one dose every day)) was in the range of 4 to 5 days. In assay [2] (diarrhea piglets aged 5-40 days), the “Later Rec (recovered after 48 hours), number of piglets” value came out at 136. Also, in assay [2] (diarrhea piglets aged 5-40 days, oral once per day), the “Early Rec (recovered within 48 hours), number of piglets” value is reported as 3. The OR in assay [2] (early recovery) is recorded as 0.001. In addition, the “Rate (%) of early recovery” value in assay [2] (recovered within 48 hours) was 2.16%. In assay [3] (diarrhea piglets aged 1-5 days), the “No death (number of piglets)” value came to 21, the “OR(risk) of death” value was found to be 0.19 and the “Rate (%) death rate” value is listed as 69.6%. In addition, the “Death (number of piglets)” value in assay [3] (diarrhea piglets aged 1-5 days, once per day) came to 48. For the same compound, the “day after treatment at which majority of piglets stopped diarrhea” value in assay [3] (one dose treatment every day) lay within 4 to 5 days. Besides, in assay [4], the “OR(effect)” value is 0.06; the “OR(risk) of death” value stood at 0.76; the duration of diarrhea was 3 to 4 days; the “outcome in words (diarrhea severity, death rate, efficacy)” value is “serious”. Further, the “Not effect (number of pups)” value in assay [4] (50 μl oral once per day) came to 48. Besides, in assay [4] (50 μl oral once per day, […]), the “Effect (number of pups)” value is 3. In addition, in assay [4] (kept 3 weeks), the “Death (number of pups)” value stood at 12, the “Death Rate(%)” value is 23.5% and the “Not died (number of pups)” value turned out to be 39. The “Rate(%) of effect” value in assay [4] ([…]) worked out at 5.88%.
Regarding `CCOC(=O)C1=C[C@@H](OC(CC)CC)[C@H](NC(C)=O)[C@@H](N)C1` [Tamiflu], the “Odds Ratio of death” value in assay [5] (influenza infection of mice) was determined as 0.36. Also, in assay [5] (mouse, in vivo, ip), the “Death (number of mice)” value is 21 and the “Rate (%) death rate” value is on record as 70%.
Turning to `CC[C@H]1OC(=O)C[C@@H](O)[C@H](C)[C@@H](O[C@@H]2O[C@H](C)[C@@H](O)[C@H](N(C)C)[C@H]2O)[C@@H](CCN2C[C@H](C)C[C@H](C)C2)C[C@@H](C)C(=O)/C=C/C(C)=C/[C@@H]1CO[C@@H]1O[C@H](C)[C@@H](O)[C@@H](OC)[C@H]1OC` [Tilmicosin], the “doses needed for getting recovered” value in assay [6] (in vivo) was 4-5 doses. In addition, the “Odds Ratio of death” value in assay [6] (piglets with respiratory syndrome) is recorded as 3.63. The “Rate (%) death” value in assay [6] (weaning piglets with respiratory syndrome (asthma)) worked out at 28.2%. The “Death (number of piglets)” value in assay [6] (weaning piglets with respiratory syndrome (asthma), once a day) was 11.
Regarding `CCCNC[C@]1(O)[C@H](C)O[C@@H](O[C@H]2[C@H](C)[C@@H](O[C@@H]3O[C@H](C)C[C@H](N(C)C)[C@H]3O)[C@](C)(O)C[C@@H](C)CN[C@H](C)[C@@H](O)[C@](C)(O)[C@@H](CC)OC(=O)[C@@H]2C)C[C@@]1(C)OC` [Tulathromycin], the “doses needed for getting recovered” value in assay [7] (dog, in vivo) was 4-7 doses. In addition, the “Later Rec, number of dogs” value in assay [7] (dogs with respiratory infections) was found to be 5. Moreover, the “Early Rec (recovered within 48-72 hours), number of dogs” value in assay [7] (dogs with respiratory infections, once per day) is recorded as 1. The same compound showed an OR in assay [7] (early recovery) of 0.04. The “Rate (%) of early recovery” value in assay [7] (recovered within 48-72 hours) is 16.7%.
